From US20140235545A1, “The use of HCV immunogenic peptide or a derivative thereof in the prevention or treatment of arthritis” (priority 2011, published 2014)
Entries after “also recorded” stand apart in the source; their conditions may differ. No end group written: not given here.

System: combined collagen-adjuvant induced arthritis (calf type II collagen in combination with Freund's complete adjuvant)
Assay: Protective effect of peptide A on combined collagen-adjuvant induced arthritis in rats
Format: in vivo, SD rats
Details: for ankle joint swelling value: X±SD; for ankle joint swelling value / Lesion scoring ( X ± SD), joint lesion severity: n=10; for inhibition rate of ankle joint swelling: vs model group; for Lesion scoring ( X ± SD), joint lesion severity / state of joint synovial tissue (HE sections): 32nd day; for Lesion scoring ( X ± SD), joint lesion severity: left rear ankle joint histopathology, lower score = milder
Source text: SPF-level SD rats, each weighting 180 g˜220 g, with male and female each in half, provided by Experimental Animal Center of Chinese Academy of Military Medical.
Peptide with the following sequence is used: GQTYTSG (hereinafter referred to as peptide A), which is synthesized by solid phase peptide synthesis method using 413A automatic peptide synthesizer (available from Perkin Elmer Corporation), the detailed synthetic steps is described in Example 1 of PCT/CN2006/001176. The peptide was to be dissolved in physiological saline when used.
SD rats, with male and female each in half, were randomly divided into five groups with 10 rats in each group, respectively are model group (employing physiological saline, calf type II collagen and Freund's complete adjuvant); control group (employing the same volume of physiological saline as the model group); peptide A high, medium and low dose groups (employing calf type II collagen, Freund's complete adjuvant and peptide A, wherein each group is given different doses of peptide A, respectively are 174 μg/kg·d, 87 μg/kg·d and 43.5 μg/kg·d, peptide A is dissolved in physiological saline to form peptide A solution with desired concentration). Peptide A solution in each dose was administered by subcutaneous injection, 0.1 ml of peptide A solution per 100 g body weight of rats. The control group employed the same amount of physiological saline as that of the peptide A solution (0.1 ml of physiological saline per 100 g body weight of rats).
10 mg of calf type II collagen was dissolved into 5 ml 0.1 mol/L of acetic acid solution, and then the resulting solution was placed in a refrigerator at 4° C. overnight, the next day, the solution was mixed with Freund's complete adjuvant in a volume ratio of 1:1, the resulting mixture is sucked and discharged repeatedly by a syringe, until the mixture was emulsified into an emulsion completely. Each group rats were administered according to the following manner. These rats were normally fed every day during the administration.
On the 1st day, except the control group, for rats of other groups (the model group and the peptide A high, medium and low dose groups), 0.5 ml of the emulsion (prepared by calf type II collagen and Freund's complete adjuvant as above) was subcutaneously injected into the base of the tail of every rat, and the injection site is pressed slightly for 30 s so that the emulsion was completely absorbed. On the 8th day, emulsion injection is conducted again in the same way, 0.5 ml for every rat.
From the 2nd day (including this day), the rats of peptide A high, medium and low dose groups each were administered with corresponding dose of peptide A. Then, they were subcutaneously injected with corresponding dose of peptide A for one time every other day, a total of 15 times; at the same time, the rats of the control group and the model group were subcutaneously injected the same amount of physiological saline as that of peptide A for the high, medium and low dose groups every other day, a total of 15 times.
Measurement for the experimental results was conducted as follows. Firstly, before administration to rats of each group, left rear ankle circumference of each rat was measured by a flexible rule as a base value, and then circumference of left rear ankle with inflammation of each rat was measured at the 4th, 8th, 12th, 16th, 20th, 24th, 28th, and 32nd day, respectively. Swelling value obtained by circumference after inflammation minus circumference before inflammation was used to observe changes of primary and secondary inflammation of combined collagen-adjuvant induced rats.
Secondly, at the 32nd day, rats of each group were killed, and their left rear foot ankle joints ware quickly taken out, fixed in 10% formalin and then embedded in paraffin after decalcification, sectioned and stained with HE. […]

[1] = high dose 174 μg/kg·d s.c., the 4th day
[2] = high dose 174 μg/kg·d s.c., the 8th day
[3] = high dose 174 μg/kg·d s.c., the 12th day
[4] = high dose 174 μg/kg·d s.c., the 16th day
[5] = high dose 174 μg/kg·d s.c., the 20th day
[6] = high dose 174 μg/kg·d s.c., the 24th day
[7] = high dose 174 μg/kg·d s.c., the 28th day
[8] = high dose 174 μg/kg·d s.c., the 32nd day
[9] = low dose 43.5 μg/kg·d s.c., the 4th day
[10] = low dose 43.5 μg/kg·d s.c., the 8th day
[11] = low dose 43.5 μg/kg·d s.c., the 12th day
[12] = low dose 43.5 μg/kg·d s.c., the 16th day
[13] = low dose 43.5 μg/kg·d s.c., the 20th day
[14] = low dose 43.5 μg/kg·d s.c., the 24th day
[15] = low dose 43.5 μg/kg·d s.c., the 28th day
[16] = low dose 43.5 μg/kg·d s.c., the 32nd day
[17] = medium dose 87 μg/kg·d s.c., the 4th day
[18] = medium dose 87 μg/kg·d s.c., the 8th day
[19] = medium dose 87 μg/kg·d s.c., the 12th day
[20] = medium dose 87 μg/kg·d s.c., the 16th day
[21] = medium dose 87 μg/kg·d s.c., the 20th day
[22] = medium dose 87 μg/kg·d s.c., the 24th day
[23] = medium dose 87 μg/kg·d s.c., the 28th day
[24] = medium dose 87 μg/kg·d s.c., the 32nd day

Substance: GQTYTSG [Peptide A]
- arthritis lesion (histopathology) after administration (all dose groups, effect in descending order high, medium, low): reduced in different degrees
- ankle joint swelling value [1]: 7.3 ± 1.8 mm
- inhibition rate of ankle joint swelling [1]: (20.6%)
- ankle joint swelling value [2]: 8.2 ± 1.5 mm
- inhibition rate of ankle joint swelling [2]: (34.4%)
- ankle joint swelling value [3]: 9.5 ± 2.1 mm
- inhibition rate of ankle joint swelling [3]: (30.1%)
- ankle joint swelling value [4]: 9.8 ± 1.7 mm
- inhibition rate of ankle joint swelling [4]: (35.5%)
- ankle joint swelling value [5]: 10.2 ± 1.9 mm
- inhibition rate of ankle joint swelling [5]: (41.4%)
- ankle joint swelling value [6]: 10.5 ± 1.9 mm
- inhibition rate of ankle joint swelling [6]: (44.1%)
- ankle joint swelling value [7]: 11.4 ± 1.6 mm
- inhibition rate of ankle joint swelling [7]: (38.7%)
- ankle joint swelling value [8]: 12.0 ± 1.6 mm
- inhibition rate of ankle joint swelling [8]: (30.6%)
- Lesion scoring ( X ± SD), joint lesion severity (high dose group (174 μg/kg·d s.c.)): 3.73 ± 1.57
- inhibition rate to the joint swelling (high dose group (174 μg/kg·d)): ~45%
- state of joint synovial tissue (HE sections) (high dose group, FIGS. 5a and 5b): mild congestion of local synovial tissue of the rats, having no significant surface proliferation
- joint swelling compared with rats of the model group (high, medium and low dose groups, observation): significantly reduced joint swelling
- skin ulcer symptom (high, medium and low dose groups, part of model rats had skin ulcers on the 24th day): did not have skin ulcer symptom
- ankle joint swelling value [9]: 8.8 ± 1.6 mm
- inhibition rate of ankle joint swelling [9]: (4.3%)
- ankle joint swelling value [10]: 10.2 ± 1.7 mm
- inhibition rate of ankle joint swelling [10]: (18.4%)
- ankle joint swelling value [11]: 11.2 ± 1.8 mm
- inhibition rate of ankle joint swelling [11]: (17.6%)
- ankle joint swelling value [12]: 12.3 ± 1.8 mm
- inhibition rate of ankle joint swelling [12]: (19.1%)
- ankle joint swelling value [13]: 13.4 ± 1.7 mm
- inhibition rate of ankle joint swelling [13]: (23.0%)
- ankle joint swelling value [14]: 14.6 ± 1.8 mm
- inhibition rate of ankle joint swelling [14]: (22.3%)
- ankle joint swelling value [15]: 14.8 ± 2.2 mm
- inhibition rate of ankle joint swelling [15]: (20.4%)
- ankle joint swelling value [16]: 14.5 ± 1.8 mm
- inhibition rate of ankle joint swelling [16]: (16.2%)
- Lesion scoring ( X ± SD), joint lesion severity (low dose group (43.5 μg/kg·d s.c.)): 4.36 ± 1.15
- state of joint synovial tissue (HE sections) (low dose group, FIGS. 3a and 3b): mild congestion and significant proliferation and surface projection of the synovial tissue, as well as mild degeneration of covering synovial cells
- ankle joint swelling value [17]: 8.2 ± 1.5 mm
- inhibition rate of ankle joint swelling [17]: (10.9%)
- ankle joint swelling value [18]: 9.3 ± 2.2 mm
- inhibition rate of ankle joint swelling [18]: (25.6%)
- ankle joint swelling value [19]: 9.9 ± 1.8 mm
- inhibition rate of ankle joint swelling [19]: (27.2%)
- ankle joint swelling value [20]: 11.4 ± 1.6 mm
- inhibition rate of ankle joint swelling [20]: (25.0%)
- ankle joint swelling value [21]: 12.2 ± 1.7 mm
- inhibition rate of ankle joint swelling [21]: (29.9%)
- ankle joint swelling value [22]: 12.6 ± 2.1 mm
- inhibition rate of ankle joint swelling [22]: (33.0%)
- ankle joint swelling value [23]: 13.7 ± 1.8 mm
- inhibition rate of ankle joint swelling [23]: (26.3%)
- ankle joint swelling value [24]: 13.9 ± 1.7 mm
- inhibition rate of ankle joint swelling [24]: (19.6%)
- Lesion scoring ( X ± SD), joint lesion severity (medium dose group (87 μg/kg·d s.c.)): 4.12 ± 1.28
- state of joint synovial tissue (HE sections) (medium dose group, FIGS. 4a and 4b): mild congestion of local synovial tissue and infiltration of few inflammatory cells; also recorded: mild congestion, uneven surface and mild proliferation of the synovial tissue
